Assay results as given in the supplement of paper PMC10307832.

What was measured:
Assay in all cases: relative viability (nuclei count vs DMSO), 5 days (fraction); higher = more cells survive
RERF-LC-KJ = test system: RERF-LC-KJ
Method in brief: (§1)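 Lung cancer cell lines in 1536-well plates were dosed by pin tool the day after seeding, either with one drug alone or with a fixed anchor-drug dose plus five library-drug doses (not always all listed) in √10 steps. After 5 days, cells were fixed and their nuclei stained in one step (final 0.05% Triton X-100, 1% formaldehyde, 1 ug/ml Hoechst), then counted on 4× images. Relative viability is the nuclei count in treated wells divided by that in vehicle wells. Values are medians of duplicate plates.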

NCI-H1355 = test system: NCI-H1355
Method in brief: as §1

LK-2 = test system: LK-2
Method in brief: as §1

NCI-H1563 = test system: NCI-H1563
Method in brief: as §1

CAL-12T = test system: CAL-12T
Method in brief: as §1

LCLC-97TM1 = test system: LCLC-97TM1
Method in brief: as §1

PC-14 = test system: PC-14
Method in brief: as §1

EKVX = test system: EKVX
Method in brief: as §1

NCI-H2405 = test system: NCI-H2405
Method in brief: as §1

NCI-H1650 = test system: NCI-H1650
Method in brief: as §1

NCI-H2228 = test system: NCI-H2228
Method in brief: as §1

NCI-H661 = test system: NCI-H661
Method in brief: as §1

HCC-15 = test system: HCC-15
Method in brief: as §1

NCI-H1975 = test system: NCI-H1975
Method in brief: as §1

NCI-H520 = test system: NCI-H520
Method in brief: as §1

PC-3 [JPC-3] = test system: PC-3 [JPC-3]
Method in brief: as §1

NCI-H322M = test system: NCI-H322M
Method in brief: as §1

HCC-827 = test system: HCC-827
Method in brief: as §1

NCI-H1734 = test system: NCI-H1734
Method in brief: as §1

NCI-H1755 = test system: NCI-H1755
Method in brief: as §1

H3255 = test system: H3255
Method in brief: as §1

With Cc1sc2c(c1C)C(c1ccc(Cl)cc1)=N[C@@H](CC(=O)OC(C)(C)C)c1nnc(C)n1-2 [JQ1] + CS(=O)(=O)N1CCN(Cc2cc3nc(-c4cccc5[nH]ncc45)nc(N4CCOCC4)c3s2)CC1 [Pictilisib] (partner 1 µM) the relative viability (RERF-LC-KJ; first compound 0.04 µM) was 0.579, the relative viability (RERF-LC-KJ; first compound 0.1265 µM) was 0.661 and the relative viability (RERF-LC-KJ; first compound 0.4 µM) was 0.595. The relative viability (RERF-LC-KJ; first compound 1.265 µM) was 0.304, the relative viability (RERF-LC-KJ; first compound 4 µM) was 0.337 and the relative viability (NCI-H1355; first compound 0.04 µM) was 0.429. For the same molecule, the relative viability (NCI-H1355; first compound 0.1265 µM) was 0.426, the relative viability (NCI-H1355; first compound 0.4 µM) was 0.456 and the relative viability (NCI-H1355; first compound 1.265 µM) was 0.334. It also gave a relative viability (NCI-H1355; first compound 4 µM) of 0.281, a relative viability (LK-2; first compound 0.04 µM) of 0.514 and a relative viability (LK-2; first compound 0.1265 µM) of 0.511. The relative viability (LK-2; first compound 0.4 µM) was 0.35, the relative viability (LK-2; first compound 1.265 µM) was 0.223 and the relative viability (LK-2; first compound 4 µM) was 0.226. For the same molecule, the relative viability (NCI-H1563; first compound 0.04 µM) was 0.606, the relative viability (NCI-H1563; first compound 0.1265 µM) was 0.645 and the relative viability (NCI-H1563; first compound 0.4 µM) was 0.611. It also gave a relative viability (NCI-H1563; first compound 1.265 µM) of 0.622, a relative viability (NCI-H1563; first compound 4 µM) of 0.638 and a relative viability (CAL-12T; first compound 0.04 µM) of 0.414. The relative viability (CAL-12T; first compound 0.4 µM) was 0.457, the relative viability (CAL-12T; first compound 1.265 µM) was 0.293 and the relative viability (CAL-12T; first compound 4 µM) was 0.36. For the same molecule, the relative viability (LCLC-97TM1; first compound 0.1265 µM) was 0.28, the relative viability (LCLC-97TM1; first compound 0.4 µM) was 0.176 and the relative viability (LCLC-97TM1; first compound 1.265 µM) was 0.105. It also gave a relative viability (LCLC-97TM1; first compound 4 µM) of 0.107, a relative viability (PC-14; first compound 0.04 µM) of 0.631 and a relative viability (PC-14; first compound 0.1265 µM) of 0.498. It also gave a relative viability (PC-14; first compound 0.4 µM) of 0.445, a relative viability (PC-14; first compound 1.265 µM) of 0.243 and a relative viability (PC-14; first compound 4 µM) of 0.122. The relative viability (EKVX; first compound 0.04 µM) was 0.442, the relative viability (EKVX; first compound 0.1265 µM) was 0.464 and the relative viability (EKVX; first compound 0.4 µM) was 0.459. It also gave a relative viability (EKVX; first compound 1.265 µM) of 0.359, a relative viability (EKVX; first compound 4 µM) of 0.335 and a relative viability (NCI-H2405; first compound 0.04 µM) of 0.536. The relative viability (NCI-H2405; first compound 0.4 µM) was 0.405, the relative viability (NCI-H2405; first compound 1.265 µM) was 0.263 and the relative viability (NCI-H2405; first compound 4 µM) was 0.221. The relative viability (NCI-H1650; first compound 0.04 µM) was 0.625, the relative viability (NCI-H1650; first compound 0.1265 µM) was 0.445 and the relative viability (NCI-H1650; first compound 0.4 µM) was 0.286. The relative viability (NCI-H1650; first compound 1.265 µM) was 0.122, the relative viability (NCI-H1650; first compound 4 µM) was 0.169 and the relative viability (NCI-H2228; first compound 0.04 µM) was 0.372. It also gave a relative viability (NCI-H2228; first compound 0.1265 µM) of 0.327, a relative viability (NCI-H2228; first compound 0.4 µM) of 0.259 and a relative viability (NCI-H2228; first compound 1.265 µM) of 0.245. It also gave a relative viability (NCI-H2228; first compound 4 µM) of 0.201, a relative viability (NCI-H661; first compound 0.04 µM) of 0.426 and a relative viability (NCI-H661; first compound 0.1265 µM) of 0.326. It also gave a relative viability (NCI-H661; first compound 0.4 µM) of 0.337, a relative viability (NCI-H661; first compound 1.265 µM) of 0.365 and a relative viability (NCI-H661; first compound 4 µM) of 0.294. It also gave a relative viability (HCC-15; first compound 0.04 µM) of 0.67, a relative viability (HCC-15; first compound 0.4 µM) of 0.663 and a relative viability (HCC-15; first compound 1.265 µM) of 0.366. The relative viability (HCC-15; first compound 4 µM) was 0.343, the relative viability (NCI-H1975; first compound 0.04 µM) was 0.298 and the relative viability (NCI-H1975; first compound 0.1265 µM) was 0.246. It also gave a relative viability (NCI-H1975; first compound 0.4 µM) of 0.27, a relative viability (NCI-H1975; first compound 1.265 µM) of 0.214 and a relative viability (NCI-H1975; first compound 4 µM) of 0.204. For the same molecule, the relative viability (NCI-H520; first compound 0.04 µM) was 0.282, the relative viability (NCI-H520; first compound 0.1265 µM) was 0.283 and the relative viability (NCI-H520; first compound 0.4 µM) was 0.253. It also gave a relative viability (NCI-H520; first compound 1.265 µM) of 0.174, a relative viability (NCI-H520; first compound 4 µM) of 0.214 and a relative viability (PC-3 [JPC-3]; first compound 0.04 µM) of 0.69. It also gave a relative viability (PC-3 [JPC-3]; first compound 0.1265 µM) of 0.727, a relative viability (PC-3 [JPC-3]; first compound 0.4 µM) of 0.443 and a relative viability (PC-3 [JPC-3]; first compound 1.265 µM) of 0.501. It also gave a relative viability (PC-3 [JPC-3]; first compound 4 µM) of 0.382, a relative viability (NCI-H322M; first compound 0.04 µM) of 0.478 and a relative viability (NCI-H322M; first compound 0.1265 µM) of 0.559. It also gave a relative viability (NCI-H322M; first compound 0.4 µM) of 0.439, a relative viability (NCI-H322M; first compound 1.265 µM) of 0.398 and a relative viability (NCI-H322M; first compound 4 µM) of 0.358. The relative viability (HCC-827; first compound 0.04 µM) was 1.06, the relative viability (HCC-827; first compound 0.4 µM) was 0.544 and the relative viability (HCC-827; first compound 1.265 µM) was 0.911. The relative viability (HCC-827; first compound 4 µM) was 0.752, the relative viability (NCI-H1734; first compound 0.04 µM) was 0.466 and the relative viability (NCI-H1734; first compound 0.1265 µM) was 0.444. It also gave a relative viability (NCI-H1734; first compound 0.4 µM) of 0.503, a relative viability (NCI-H1734; first compound 1.265 µM) of 0.296 and a relative viability (NCI-H1734; first compound 4 µM) of 0.327. For the same molecule, the relative viability (NCI-H1755; first compound 0.04 µM) was 0.404, the relative viability (NCI-H1755; first compound 0.1265 µM) was 0.419 and the relative viability (NCI-H1755; first compound 0.4 µM) was 0.421. For the same molecule, the relative viability (NCI-H1755; first compound 1.265 µM) was 0.208, the relative viability (NCI-H1755; first compound 4 µM) was 0.185 and the relative viability (H3255; first compound 0.04 µM) was 0.468. It also gave a relative viability (H3255; first compound 0.1265 µM) of 0.464, a relative viability (H3255; first compound 0.4 µM) of 0.552 and a relative viability (H3255; first compound 1.265 µM) of 0.381. The relative viability (H3255; first compound 4 µM) was 0.338.
